According to patent US7674579B2, “Apoptosis-based evaluation of chemosensitivity in cancer patients” (Yale University, priority 2003, dated 2010):

Key:
[1] = system: EOC R182 cells; test: Western blot for activated caspase-3, EOC R182 cells; assay type: cell-based, human
Method: (§1) Cells were treated with drug as described above. Cells were then scraped from the culture vessel, pelleted at 2000 rpm at room temperature and lysed in phosphate buffered saline with 1% NP40, 0.1% sodium dodecyl sulfate. After 20 min on ice, debris was removed by centrifugation at 14,000×g at 4° C.
(§2) Protein concentration was determined and 20 μg samples were denatured in sample buffer (2.5% SDS, 10% glycerol, 5% b-mercaptoethanol, 0.15 M Tris (pH 6.8) and 0.01% broinophenol blue) and subjected to 10 or 12% SDS-PAGE. Proteins were transferred to PVDF membranes (Immobilon, Millipore, Bedford, Mass.) at 100V for 105 min.
(§3) Western blots were performed as previously described (32) (28). Antibodies and concentrations were: rabbit anti-actin (Sigma, 1:10,000), rabbit anti-proform caspase-3 (Santa Cruz, Santa Cruz Calif. 1:1000), rabbit anti-cleaved-caspase-3 (CellSignaling, 1:1000). Antibody binding was determined by enhanced chemiluminescence detection of peroxidase conjugated secondary antibodies (Vector).

[2] = system: CP70 cells; test: Western blot for activated caspase-3, CP70 cells; assay type: cell-based, human
Method: as §1, §2, §3

[3] = system: A2780 ovarian cancer cells; test: Western blot for activated caspase-3, A2780 cells; assay type: cell-based, human
Method: as §1, §2, §3

[4] = system: EOC cells RI82S; test: TUNEL assay, EOC cells R182S; assay type: cell-based, human
Method: (§4) To avoid loss of the apoptotic cells, which detach from monolayer culture and are washed away, cells were cultured in suspension above a one ml layer of 1% agarose per well of a 6-well plate. Two ml of cells at 1×10^5/ml growth medium were placed in each well and incubated at 37° C. with 5% CO2. Plates were agitated gently once per day. After drug exposure for 4 hr, the cells were centrifuged, resuspended in fresh medium and returned to the same wells for 48 hr. Cells were centrifuged at 1000 rpm for 10 min, resuspended in 0.5 ml 10% neutral buffered formalin and incubated at room temperature for 10 min. Centrifugation was repeated and cells were resuspended in 80% ethanol. A 25 μl aliquot was pipeted onto a glass slide and dried at room temperature until no moisture was evident. Cells were calorimetrically stained with TUNEL assay reagents (Trevigen) according to the protocol provided by the manufacturer.

[5] = system: Three established ovarian cancer cell lines and 19 ovarian cancer patient-derived cell samples; test: Caspase-3 assay, distribution of apoptotic response over 22 cases; assay type: cell-based, human; conditions: of 22 cases, drugs tested separately
Method: Ovarian cancer cell lines HEY (gift from Dr. J M Trent, (26)), A2780 and CP70 (gifts from Dr. T C Hamilton, (27)) were cultured at 37° C. in a 5% CO2 atmosphere. Culture medium varied with the cell line: […] All formulations contained 100 μg/ml streptomycin, 62.5 μg/ml penicillin and 2.5 μg/ml amphotericin. […] For drug treatments, approximately 1×10^5 cells in exponential growth were sub-cultured in a 25 cm^2 flask per treatment. […] With informed consent from 28 patients undergoing routine procedures at Yale-New Haven Hospital 100 to 200 ml of ascites fluid or pelvic washings were obtained. Epithelial cells were collected as previously described (28). Briefly, samples were centrifuged and the cellular pellet was resuspended in Hank's Balanced Salt Solution (HBSS; Gibco Invitrogen, Carlsbad, Calif.). The suspension was centrifuged at 1500 rpm for 10 mins at room temperature. The pellet was then resuspended in HBSS and layered onto LSM lymphocyte separation medium (ICN Biomedicals Inc, Aurora, Ill.) and centrifuged at 2000 rpm for 25 minutes at room temperature. The mononuclear cell-containing layer was collected and incubated with an anti-CD45 mAb conjugated to magnetic beads (Dynal, Oslo, Norway) at 4° C. with rotation for 30 minutes. Following this incubation, the cells were placed into a magnet and the unbound epithelial cells were collected, washed and placed into culture media. […] Remaining cells were cultured in primary culture medium as described above and evaluated for morphological evidence of malignancy by a pathologist. Viable, malignant cells were isolated from 21 of the 28 samples. In agreement with Lounis et al. (29), any fibroblastic cells in the isolated population disappeared after 2 to 3 passages and cells survived on average for 7 to 8 passages. […] Lysates were incubated on ice for 30 min, mixing every 5 min by gentle vortexing. […] Supernatants were frozen and stored at -70° C. Protein concentration was determined by BioRad Protein Assay (BioRad). […] CaspACETM Assay System, Colorimetric). […] Plates were incubated at 37° C. for 4 hr. Absorbance of the cleaved product was read at 405 nm in a Dynatech MR3000 plate reader. Blank values were subtracted and caspase-3 activity was expressed as the absorbance at 405 nm of the cleaved substrate (pNA). Drug treated samples were compared with samples which had not been treated to give a value called relative activity.

[6] = system: A2780 cells; test: Caspase-3 assay (dose response and time course), A2780 cells; assay type: cell-based, human
Method: (§5) Ovarian cancer cell lines HEY (gift from Dr. J M Trent, (26)), A2780 and CP70 (gifts from Dr. T C Hamilton, (27)) were cultured at 37° C. in a 5% CO2 atmosphere. Culture medium varied with the cell line: DME/F12 plus 1% calf serum (HEY); DME/F12 plus 10% FBS, 584 ug/ml L glutamine (A2780 and CP70). All formulations contained 100 μg/ml streptomycin, 62.5 μg/ml penicillin and 2.5 μg/ml amphotericin. Primary cells were cultured in 50% 199 media and 50% MCDB 105 media (Sigma), supplemented with 10% fetal bovine serum (Hyclone, South Logan, Utah), 10 mM HEPES, 0.1 mM MEM non-essential amino acids, 1 mM sodium pyruvate, 100 nM penicili/streptomycin (Gibco) and 4 ng/ml EGF (Sigma). […]
(§6) After drug treatment, cells were lysed and collected in cold 10 mM Tris, pH 7.5, 10 mM Na Phosphate buffer, 130 mM NaCl, 1% Triton X-100, 10 mM Na Pyrophosphate plus freshly added Protease Inhibitor Cocktail (20 μl/ml, Sigma P8340) and 2 MM PMSF. […] Protein concentration was determined by BioRad Protein Assay (BioRad).
(§7) Caspase-3 activity was measured in duplicate from 50 μg cell lysate samples (lysate comprised less than 20% of the total reaction volume)(Promega Corp. CaspACE™ Assay System, Colorimetric). […] Absorbance of the cleaved product was read at 405 nm in a Dynatech MR3000 plate reader. Blank values were subtracted and caspase-3 activity was expressed as the absorbance at 405 nm of the cleaved substrate (pNA). […]

[7] = system: EOC cells S 103; test: TUNEL assay, EOC cells S103; assay type: cell-based, human; conditions: S 103 cells
Method: as §4

[8] = system: CP70; test: Clonogenic assay, CP70 cell line; assay type: cell-based, human
Method: (§8) Ovarian cancer cell lines HEY (gift from Dr. J M Trent, (26)), A2780 and CP70 (gifts from Dr. T C Hamilton, (27)) were cultured at 37° C. in a 5% CO2 atmosphere. Culture medium varied with the cell line: DME/F12 plus 1% calf serum (HEY); DME/F12 plus 10% FBS, 584 ug/ml L glutamine (A2780 and CP70). All formulations contained 100 μg/ml streptomycin, 62.5 μg/ml penicillin and 2.5 μg/ml amphotericin. Primary cells were cultured in 50% 199 media and 50% MCDB 105 media (Sigma), supplemented with 10% fetal bovine serum (Hyclone, South Logan, Utah), 10 mM HEPES, 0.1 mM MEM non-essential amino acids, 1 mM sodium pyruvate, 100 nM penicili/streptomycin (Gibco) and 4 ng/ml EGF (Sigma). For drug treatments, approximately 1×10^5 cells in exponential growth were sub-cultured in a 25 cm^2 flask per treatment. Carboplatin (Sigma C2538) or paclitaxel (Sigma T7402) was added to the media after the cells reached 60-70% confluence as described in the Results.
Cells were seeded at 600 per 60 mm culture dish and incubated overnight to establish adherence then exposed to varying concentrations of drug for 4 hours. Medium was replaced and incubation was continued for 10-14 days. The cells were washed with 0.9% saline solution then fixed and stained in 72% methanol, 10% formaldehyde, 0.25% crystal violet. Colonies greater than 30 cells were counted. Percent survival was calculated based on the number of colonies in untreated dishes. Each treatment was done at least in duplicate.

[9] = system: HEY; test: Clonogenic assay, HEY cell line; assay type: cell-based, human
Method: as §8
(§9) Cells were seeded at 600 per 60 mm culture dish and incubated overnight to establish adherence then exposed to varying concentrations of drug for 4 hours. Medium was replaced and incubation was continued for 10-14 days. […] Colonies greater than 30 cells were counted. Percent survival was calculated based on the number of colonies in untreated dishes. […]

[10] = system: CP70 cells; test: Caspase-3 assay (dose response and time course), CP70 cells; assay type: cell-based, human; conditions: CP70, 0.1 μM, 30 hours treatment
Method: as §5, §6, §7

[11] = system: A2780; test: Clonogenic assay, A2780 cell line; assay type: cell-based; conditions: Homo sapiens, clonogenic survival, 4 hours drug exposure, 10-14 days
Method: as §8, §9

[12] = system: invasive ovarian carcinoma; conditions: of 13 patients
Text: Patients were monitored for disease recurrence based on physical symptoms, physical examination, CA-125 levels and radiologic imaging. Chemosensitivity is defined as no evidence of disease recurrence, based on the above monitoring, within 6 months of completing the chemotherapy regimen of carboplatin and paclitaxel. Sensitivity of six months is commonly used to define which patients are platinum-sensitive in order to direct second-line therapy (30).

`N.N.O=C([O-])C1(C(=O)[O-])CCC1.[Pt+2]` [Carboplatin] was tested, and the “expression of the active forms of caspase-3” value (“expression” below) ([1]; EOC R182, 100 μg/ml for 48 hr) was “No active forms of caspase-3 are present”, the “expression” value ([2]; CP70, 100 μg/ml for 48 hr) was “No active forms of caspase-3 are present” and the “expression” value ([3]; A2780, carboplatin treatment) was “moderate levels”. The “percentage of TUNEL-positive cells” value ([4]; 100 μg/ml) was 90%, the “Number of Cases Resistant (no increase of caspase-3 activity)” value [5] was 1 and the “Number of Cases Sensitive (increased caspase-3 activity relative to untreated samples)” value [5] was 21. The “Number of Cases Resistant (no increase of caspase-3 activity)” value ([5]; listed as carboplatin) was “one”, the caspase-3 activity ([6]; A2780, 24 hour exposure) was “significant caspase-3 activity” and the caspase-3 activity ([6]; A2780, 48 hour treatment, 100 μg/ml) was “Optimal activity”. The “percentage of cells that stain for apoptosis (TUNEL)” value ([7]; 100 μg/ml) was 30.40% and the “resistance of CP70 relative to A2780” value ([8]; clonogenic IC50, CP70 vs A2780) was “about 25 fold”.
`CC(=O)O[C@H]1C(=O)[C@@]2(C)[C@H]([C@H](OC(=O)c3ccccc3)[C@]3(O)C[C@H](OC(=O)[C@H](O)[C@@H](NC(=O)c4ccccc4)c4ccccc4)C(C)=C1C3(C)C)[C@]1(OC(C)=O)CO[C@@H]1C[C@@H]2O` [Paclitaxel] was tested, and the “expression” value ([1]; EOC R182, 0.1 μM for 30 hr) was “no expression of caspase-3 active forms”, the “expression” value ([2]; CP70, 0.1 μM for 30 hr) was “induces the expression of the active forms of caspase-3” and the “expression” value ([3]; A2780, paclitaxel treatment) was “high levels”. For the same molecule, the “increase in number of TUNEL-positive cells compared to the untreated controls” value ([4]; 0.1 μM) was 30-40%, the “Number of Cases Resistant (no increase of caspase-3 activity)” value [5] was 12 and the “Number of Cases Sensitive (increased caspase-3 activity relative to untreated samples)” value [5] was 10. The “Number of Cases Resistant (no increase of caspase-3 activity)” value ([5]; listed as paclitaxel) was “Twelve”, the “Number of Cases Sensitive (increased caspase-3 activity relative to untreated samples)” value ([5]; listed as paclitaxel) was “Ten” and the “increase in number of TUNEL-positive cells compared to the untreated controls” value ([7]; 0.1 μM) was 10-20%. For the same molecule, the “relative response among the three cell lines” value ([8]; CP70 cells, clonogenic assay) was “most sensitive”, the IC50 ([8]; Homo sapiens, CP70, clonogenic survival, 4 hours drug exposure, 10-14 days) was 18.6 nM and the “relative response among the three cell lines” value ([9]; HEY cells, clonogenic assay) was “most resistant”. The IC50 ([9]; Homo sapiens, HEY, clonogenic survival, 4 hours drug exposure, 10-14 days) was 100 nM, the caspase-3 activity [10] was “significant caspase-3 activity” and the IC50 [11] was 43.7 nM.
Carboplatin and Paclitaxel was tested, and the “number of patients clinically responsive (chemo-sensitive)” value ([12]; no evidence of disease recurrence for 6 months following completion of the regimen) was “seven”, the “number of patients chemo-resistant” value ([12]; recurrence within 6 months of completing the regimen) was “six” and the “Number of Cases Resistant (no increase of caspase-3 activity)” value [5] was 1. The “Number of Cases Sensitive (increased caspase-3 activity relative to untreated samples)” value [5] was 10.
